Values quoted from earlier work, collected in US20170247690A1, “ONCOVIRAL TREATMENT WITH NUCLEASE AND CHEMOTHERAPEUTIC” (priority 2016, published 2017).

What was measured:
[1] = tested on: proteasome T-L activity; settings: animal model studies
[2] = biological target: 20S proteasomes (Homo sapiens, UniProt Q99436); settings: purified 20S proteasomes

SMILES | T-L proteasome activity in vivo [1] | EC50 for trypsin-like (T-L) activity, comparison [2]
CC(C)C[C@H](NC(=O)[C@H](Cc1ccccc1)NC(=O)c1cnccn1)B(O)O [bortezomib] | enhances T-L proteasome activity | 
C[C@@]12OC(=O)[C@]1([C@@H](O)[C@@H]1C=CCCC1)NC(=O)[C@@H]2CCCl [salinosporamide A, Salinosporamide A] | marked inhibition of T-L activity | lower EC50 for trypsin-like (T-L) activity than does bortezomib
